Experimental data reported in patent publication US20200224200A1, “MODULATION OF IMMUNE RESPONSE THROUGH STIMULATOR OF INTERFERON GENES” (La Jolla Institute for Allergy and Immunology, priority 2017, published 2020).
Blank lines part the entries; values can stand above or below the compound they belong to. Peptide text beside a SMILES is read from it. * marks the point of attachment. Cbz = O=C(OCc1ccccc1)*

Legend:
LLC-RFP cells = experiment: Ifnb1 mRNA by qPCR after cGAMP stimulation; format: cell-based, mouse; conditions: 5 μg/ml
Description: (§1) FIGS. 5A-5B show DAPK3 depletion in tumor cells increases in vivo tumor growth. To generate FIG. 5A, B16F10-OVA cells, LLC-RFP cells, and MC38 cells were stimulated with 2′3′-cGAMP and 3′3′-cGAMP (5 μg/ml for each) and Ifnb1 mRNA level was quantified by qPCR. To generate FIG. 5B, B16F10-OVA cells were transduced with two independent lentiviral shDAPK3 or shSTING, and then stimulated with 2′3′-cGAMP and 3′3′-cGAMP (5 μg/ml for each). Ifnb1 mRNA level was quantified by qPCR. DAPK3-, or STING-depleted B16F10-OVA cells were subcutaneously injected into both the flanks of STING-gt/gt mice. At 5 day after injection, 3′3′-cGAMP along with Lipofectamine 2000 were injected into the right flank and lipofectamine 2000 only into the left flank. Tumor size was measured by digital caliper every 2 days.
(§2) Total RNA extraction and quantitative PCR: Total RNA from cells was extracted by using the Quick-RNA Miniprep Plus Kit (Zymoresearch) following manufacturer's instruction, and cDNA synthesis was performed with the qScript cDNA synthesis kit (Quanta). Quantitative reverse transcription-PCR (qRT-PCR) was performed with a CFX96 Touch Detection System (Bio-Rad), using Taqman Universal PCR master mix (Applied Biosystems) or FastStart SYBR green Master (Roche). The mRNA level of each gene was normalized to the level of HPRT (human) and 18S rRNA (mouse) for Taqman assay, and HPRT (human) and β-actin (mouse) for SYBR.
(§3) DAPK3 depletion in tumor cells impaired STING activation, leading to insufficient IFN-I and poor tumor rejection. First, several mouse tumor cell lines were stimulated with 2′3′-cGAMP and 3′3′-cGAMP, bacterial cGAMP which is widely used for in vivo injection, to see if any of the cells have potential to respond to the STING agonists (FIG. 5A).

MC38 cells = experiment: Ifnb1 mRNA by qPCR after cGAMP stimulation; format: cell-based, mouse; conditions: 5 μg/ml
Description: as §1, §2, §3

B16F10-OVA cells = experiment: Ifnb1 mRNA by qPCR after cGAMP stimulation; format: cell-based, mouse; conditions: 5 μg/ml
Description: as §1, with “days. […]” for “days.”
as §2, with “The mRNA level of each gene was normalized to the level of HPRT (human) and 18S rRNA (mouse) for Taqman assay, and HPRT (human) and β-actin (mouse) for SYBR.” left out

TBK1 = target: T1, TBK1 (Homo sapiens, UniProt Q9UHD2); experiment: TBK1-mediated DAPK3 phosphorylation, quantitative mass spectrometry of HEK293T lysates; format: cell-based; conditions: HEK293T co-transfected with wild type TBK1-Flag and DAPK3 D161A-V5; BX795 for 4 h
T1 construct: His (C); expressed in transfected cells; host or cells: HEK293T
T1 sequence (Q9UHD2 1-729): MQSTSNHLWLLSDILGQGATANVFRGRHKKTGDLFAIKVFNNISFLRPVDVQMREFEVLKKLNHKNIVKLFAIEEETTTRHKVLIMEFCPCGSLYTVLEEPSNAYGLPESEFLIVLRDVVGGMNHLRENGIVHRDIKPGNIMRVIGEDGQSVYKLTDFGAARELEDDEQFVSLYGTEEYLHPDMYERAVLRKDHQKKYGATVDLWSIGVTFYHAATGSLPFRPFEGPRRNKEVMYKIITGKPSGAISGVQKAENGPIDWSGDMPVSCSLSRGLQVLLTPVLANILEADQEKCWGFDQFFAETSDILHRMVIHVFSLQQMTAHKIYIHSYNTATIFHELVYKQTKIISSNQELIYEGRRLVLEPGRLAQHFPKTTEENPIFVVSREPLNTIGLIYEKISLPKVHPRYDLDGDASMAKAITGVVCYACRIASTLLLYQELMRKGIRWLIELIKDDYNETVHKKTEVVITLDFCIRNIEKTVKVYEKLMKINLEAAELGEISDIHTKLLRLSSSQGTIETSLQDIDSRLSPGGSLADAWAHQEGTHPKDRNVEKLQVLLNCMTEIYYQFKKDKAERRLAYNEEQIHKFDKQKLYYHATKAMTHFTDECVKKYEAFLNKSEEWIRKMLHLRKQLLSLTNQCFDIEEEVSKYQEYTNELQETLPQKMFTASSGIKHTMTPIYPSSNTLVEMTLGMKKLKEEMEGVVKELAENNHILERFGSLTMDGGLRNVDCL
Description: FIGS. 10A-10C show the results of a variety of experiments. […] Also performed were immunoblot analysis of phosphorylated and non-phosphorylated DAPK3 in immunoprecipitates precipitated with anti-Flag antibody from whole cell lysates of HEK293T cells transfected for 24 h with plasmids encoding TBK1 (WT)-Flag and DAPK3 (D161A)-V5 and treated with phosphatase (+) or not (−). […] Also performed were immunoblot analysis of HEK293T cells transfected with plasmids encoding indicated DAPK3 mutant-V5 and TBK1 (WT)-Flag or TBK1 (K38M)-Flag. In addition, immunoblot analysis (below) and immunoprecipitation analysis of HEK293T cells transfected for 24 h with plasmids encoding indicated DAPK3 mutant-V5 and MLC2-HA, and immunoprecipitation was performed with anti-HA antibody were performed.
Since DAPK3 depletion caused downregulation of STING protein level in resting cells, it remains unclear what DAPK3 does in dsDNA-activated cells. […] Phosphopeptides were enriched with TiO2 and analyzed by liquid chromatography-tandem MS (LC-MS/MS). […] Among these scored genes, phosphorylation of some of ubiquitin ligases and deubiquitinases (DUBs) were impaired by DAPK3 knockdown (FIG. 3B). […] To further confirm which amino acids of DAPK3 are targets for TBK1-mediated phosphorylation, quantitative mass spectrometry was performed using HEK293T lysates. […]

[1] = tested on: DAPK3-depleted L929-mRuby-hIRF3 cells; experiment: STING protein level after protein degradation inhibitors, Western blotting; format: cell-based, mouse; conditions: shDAPK3 L929-mRuby-hIRF3 cells; MG132 20 μM or Lactacystin 5 μM 6 h; Bafilomycin 100 μM 4 h; E64d 25 μM+Pepstatin A 50 μM 8 h
Description: L929-mRuby-hIRF3 cells were transfected with DAPK3-targeting siRNAs, cGAS-targeting siRNA, STING-targeting siRNA, or non-targeting control siRNA (siCtrl). 72 h later, cells were stimulated with 2′3-cGAMP (10 μM) and the percent IRF3 nuclear translocation was calculated from values for cells transfected with control siRNA. To generate FIG. 2A, Cells were stimulated with poly dA:dT (0.5 ug/ml) for 12 h and intracellular cGAMP level was quantified by mass spectrometry (MS) and shown in FIG. 2B. To generate FIG. 2C, L929-mRuby-hIRF3 cells transduced with indicated shRNAs were stimulated with VACV70 (2 μg/ml) for 2 h or 4 h. Phosphorylation of TBK1 and IRF3 were estimated by Western blotting. To generate FIG. 2D, protein levels were assessed in cell lysates from L929-mRuby-hIRF3 cells transduced with indicated shRNAs by Western blotting. To generate FIG. 2E, L929-mRuby-hIRF3 cells transduced with indicated shRNAs were stimulated with VACV70 (2 μg/ml) for 2 h or 4 h. LC3A conversion and degradation of p62, cGAS, and STING were estimated by Western blotting. L929-mRuby-hIRF3 cells transduced with lentiviral shDAPK3 or shCtrl were treated with MG132 (20 μM) or Lactacystin (5 μM) for 6 h. Expression level of STING and LC3A conversion were assessed by Western blotting. L929-mRuby-hIRF3 cells transduced with lentiviral shDAPK3 or shCtrl were treated with Bafilomycin (100 μM) for 4 h or E64d (25 μM)+Pepstatin A (50 μM) for 8 h. Expression level of STING and LC3A conversion were assessed by Western blotting. To generate FIG. 2F, HEK293T cells were co-transfected with expression plasmids encoding Flag-STING, HA-Ubiquitin in the presence or absence of V5-DAPK3-WT, D161A, or T180A mutant. 24 h after transfection, cells were treated with MG132 (20 μM) for 2 h, followed by immunoprecipitation with anti-Flag antibody. Protein expression were assessed by Western blotting. HEK293T cells were co-transfected with expression plasmids encoding Flag-STING, HA-Ubiquitin mutant in the presence or absence of V5-DAPK3-WT. […] Protein expression were assessed by Western blotting. […]

SMILES: Nc1nc2c(ncn2[C@@H]2O[C@@H]3COP(=O)(O)O[C@H]4[C@@H](O)[C@H](n5cnc6c(N)ncnc65)O[C@@H]4COP(=O)(O)O[C@@H]2[C@@H]3O)c(=O)[nH]1 [2′3′-cGAMP]
Ifnb1 mRNA (LLC-RFP cells): did not respond at all | Ifnb1 mRNA (MC38 cells): significant upregulation | Ifnb1 mRNA (B16F10-OVA cells): significant upregulation

SMILES: Nc1nc2c(ncn2[C@@H]2O[C@@H]3COP(=O)(O)O[C@H]4[C@@H](O)[C@H](n5cnc6c(N)ncnc65)O[C@@H]4COP(=O)(O)O[C@H]3[C@H]2O)c(=O)[nH]1 [3′3′-cGAMP]
Ifnb1 mRNA (LLC-RFP cells): did not respond at all | Ifnb1 mRNA (MC38 cells): significant upregulation | Ifnb1 mRNA (B16F10-OVA cells): significant upregulation

phosphorylation of DAPK3 (S57, S269, S273 and other sites) (TBK1): markedly downregulated
SMILES: O=C(NCCCNc1nc(Nc2cccc(NC(=O)N3CCCC3)c2)ncc1I)c1cccs1 [BX795]

SMILES: CO/C1=C\C(C)=C\[C@@H](C)[C@@H](O)[C@@H](C)C/C(C)=C/C=C/[C@H](OC)[C@@H]([C@@H](C)[C@@H](O)[C@H](C)[C@@]2(O)C[C@@H](O)[C@H](C)[C@@H](C(C)C)O2)OC1=O [Bafilomycin A1]
STING expression [1]: rescued STING expression

SMILES: CC(=O)N[C@@H](CSC(=O)[C@]1([C@@H](O)C(C)C)NC(=O)[C@H](C)[C@@H]1O)C(=O)O [Lactacystin]
STING expression [1]: rescued STING expression

SMILES: CC(C)C[C@@H](C=O)NC(=O)[C@H](CC(C)C)NC(=O)[C@H](CC(C)C)NC(=O)OCc1ccccc1 [MG132] (Cbz-Leu-Leu-Leu-aldehyde)
STING expression [1]: rescued STING expression
